According to patent US20080275078A1, “Pyrazolo[3,4-B] Pyridine Compounds and Their Use as Pde4 Inhibitors” (Glaxo Group Limited, priority 2004, published 2008):

Test system: COPD patients
Test: not given
Conditions: roflumilast, Lipworth 2005; cited from earlier work

| Compound | FEV1 in COPD patients |
| --- | --- |
| O=C(Nc1c(Cl)cncc1Cl)c1ccc(OC(F)F)c(OCC2CC2)c1 [roflumilast] | small improvements in FEV1 |

Test system: dinitrofluorobenzene (DNFB)-induced delayed type hypersensitivity (DTH) response in pigs
Test: In Vivo Assay A: pig model of atopic dermatitis, skin topical administration
Conditions: 1% (w/w) cream formulation; p<0.05 by ANOVA
Excerpt: The pig DTH (delayed type hypersensitivity) model of contact hypersensitivity utilizes the Th2-mediated inflammatory response in pig skin to mimic the pathology of atopic dermatitis in humans. The model measures the potential anti-inflammatory effect of compounds, topically-applied to the skin, on the acute DTH (delayed type hypersensitivity) response in castrated male Yorkshire pigs.
In general in the assay, pigs (domestic Yorkshire pigs, 15-18 kg at time of sensitization, castrated males) are first sensitized by topical application of ca. 10% (w/v) dinitrofluorobenzene (DNFB) dissolved in DMSO:acetone:olive oil (ca. 1:5:3) (ca. 40 mg DNFB, 400 microlitre solution total) to the ears (outer) and groin (inner). The pigs are then challenged 12 days later with ca. 0.6% (w/v) DNFB applied to randomized sites on the shaved back of the pigs (ca. 90 micrograms/site; sites are identified and numbered by grid made with marking pen).
On the day of challenge, the treatments are performed at the challenge sites at about 2 hours prior to and about 6 hours after challenge (for DMSO/acetone solutions/suspensions containing the PDE4 inhibitor, to maximize exposure to drug), or at about 30 minutes after and about 6 hours after challenge (for topical ointments or creams containing the PDE4 inhibitor, representing a more clinically relevant treatment protocol).
One day (about 24 hrs) after challenge, and optionally again at ca. 48 hrs post challenge, test sites are visually evaluated for intensity and extent of erythema by measuring the diameter of the reaction at its widest point and assigning scores of 0 to 4 for each of erythema intensity and erythema extent. Induration (a measure of swelling) is also scored 0 to 4. Scores for erythema intensity, erythema extent and induration are assigned according to the following criteria: Intensity of Erythema: 0=normal, 1=minimal, barely visible, 2=mild, 3=moderate, 4=severe. Extent of Erythema (not raised): 0=no edema, 1=macules of pin head size, 2=lentil sized macules, 3=confluent macules, 4=diffuse over entire site. Induration (palpable): 0=normal, 1=nodules of pin head size, 2=doughy lentil sized nodules, 3=confluent firm nodules, 4=diffuse hard lesion. The summed visual score at ca. 24 hours includes the individual scores for erythema intensity, erythema extent, and induration; so the maximal summed score for each site would be 12. High summed scores can generally indicate a high inflammatory response. Visual scores are subject to some inaccuracy/error.
Differences in the summed score between adjacent control (placebo) and treatment sites on the grids are calculated. This difference value is then used to determine the percent inhibition compared to the summed score for the control (placebo) sites. The more negative the difference value, the greater the calculated inhibition. Percent inhibition of (percent inhibition compared to) the mean summed score can be calculated.
About 24 hours after challenge, treatment sites can optionally also be visually evaluated for lesion area.
The anti-inflammatory effect of the compound 4-{[1-(aminocarbonyl)-4-piperidinyl]amino}-N-[(3,4-dimethylphenyl)methyl]-1-ethyl-1H-pyrazolo[3,4-b]pyridine-5-carboxamide (“Example 2 or 2A compound”), applied topically to the skin, on the acute DTH response in castrated male Yorkshire pigs is compared to that of another PDE4 inhibitor cipamfylline (BRL-61063) and the topical immunomodulator pimecrolimus.
In the above assay, the Example 2 or 2A compound is topically administered: either (A) at ca. 2.5% (w/v) concentration in a solution of ca. 10% DMSO/90% acetone (ca. 50 microlitres or ca. 1.5 mg/site) at about 2 hours prior to and about 6 hours after the DNFB challenge; or (B) at ca. 0.5% (w/w) concentration in an ointment containing propylene glycol (PG)* (ca. 25 mg of formulation/site) at about 30 minutes after and about 6 hours after the DNFB challenge. […]

| Compound | inhibition of the summed scores |
| --- | --- |
| CC[C@@H]1/C=C(\C)C[C@H](C)C[C@H](OC)[C@H]2O[C@@](O)(C(=O)C(=O)N3CCCC[C@H]3C(=O)O[C@H](/C(C)=C/[C@@H]3CC[C@H](Cl)[C@H](OC)C3)[C@H](C)[C@@H](O)CC1=O)[C@H](C)C[C@@H]2OC [pimecrolimus, reference compound] | about 29% |

Molecular target: T1, PDE4B (human recombinant) (Homo sapiens, UniProt Q07343)
T1 construct: made in house; host or cells: Saccharomyces cerevisiae strain GL62 (PDE-deficient yeast), 100,000xg supernatant of cell lysate, as described in WO 94/20079
Test: Inhibition of PDE4B activity (SPA or FP assay)
Assay type: biochemical
Conditions: SPA or FP assay or similar; n=1 or average of 2 or more readings; range given for the listed group of Examples; read-out: PDE4B pIC50 (±about 0.5) (converted)
Excerpt: Human recombinant PDE4B, in particular the 2B splice variant thereof (HSPDE4B2B), is disclosed in WO 94/20079 and also M. M. McLaughlin et al., “A low Km, rolipram-sensitive, cAMP-specific phosphodiesterase from human brain: cloning and expression of cDNA, biochemical characterisation of recombinant protein, and tissue distribution of mRNA”, J. Biol. Chem., 1993, 268, 6470-6476. For example, in Example 1 of WO 94/20079, human recombinant PDE4B is described as being expressed in the PDE-deficient yeast Saccharomyces cerevisiae strain GL62, e.g. after induction by addition of 150 uM CuSO4, and 100,000×g supernatant fractions of yeast cell lysates are described for use in the harvesting of PDE4B enzyme.
The ability of compounds to inhibit catalytic activity at PDE4B or 4D (human recombinant), PDE3 (from bovine aorta), PDE5 (human recombinant) or PDE6 (from bovine retina) can optionally be determined by Scintillation Proximity Assay (SPA) in a 96-well format. • Test compounds (as a solution in DMSO, preferably about 2 microlitre (ul) volume of DMSO solution) are preincubated at ambient temperature (room temperature, e.g. 19-23° C.) in Wallac Isoplates (code 1450-514) with PDE enzyme in 50 mM Tris-HCl buffer pH 7.5, 8.3 mM MgCl2, 1.7 mM EGTA, 0.05% (w/v) bovine serum albumin for 10-30 minutes (usually 30 minutes). The enzyme concentration is adjusted so that no more than 20% hydrolysis of the substrate defined below occurs in control wells without compound, during the incubation. For the PDE3, PDE4B and PDE4D assays, [5′,8-^3H]Adenosine 3′,5′-cyclic phosphate (Amersham Pharmacia Biotech, code TRK.559; or Amersham Biosciences UK Ltd, Pollards Wood, Chalfont St Giles, Buckinghamshire HP8 4SP, UK) is added to give 0.05 uCi per well and about 10 nM final concentration. For the PDE5 and PDE6 assays, [8-^3H]Guanosine 3′,5′-cyclic phosphate (Amersham Pharmacia Biotech, code TRK.392) is added to give 0.05 uCi per well and about 36 nM final concentration. Plates containing assay mixture, preferably approx. 100 ul volume of assay mixture, are mixed on an orbital shaker for 5 minutes and incubated at ambient temperature for 1 hour. Phosphodiesterase SPA beads (Amersham Pharmacia Biotech, code RPNQ 0150) are added (about 1 mg per well) to terminate the assay. Plates are sealed and shaken and allowed to stand at ambient temperature for 35 minutes to 1 hour (preferably 35 minutes) to allow the beads to settle. Bound radioactive product is measured using a WALLAC TRILUX 1450 Microbeta scintillation counter. For inhibition curves, 10 concentrations (e.g. 1.5 nM-30 uM) of each compound are assayed. Curves are analysed using ActivityBase and XLfit (ID Business Solutions Limited, 2 Ocean Court, Surrey Research Park, Guildford, Surrey GU2 7QB, United Kingdom) Results are expressed as pIC50 values.
The ability of compounds to inhibit catalytic activity at PDE4B (human recombinant) or PDE4D (human recombinant) can optionally be determined by IMAP Fluorescence Polarisation (FP) assay (IMAP Explorer kit, available from Molecular Devices Corporation, Sunnydale, Calif., USA; Molecular Devices code: R8062) in a 384-well format.
The IMAP FP assay is able to measure PDE activity in an homogenous, non-radioactive assay format. The FP assay uses the ability of immobilised trivalent metal cations, coated onto nanoparticles (tiny beads), to bind the phosphate group of Fl-AMP that is produced on the hydrolysis of fluorescein-labelled (Fl) cyclic adenosine mono-phosphate (Fl-cAMP) to the non-cyclic Fl-AMP form. […] Binding of Fl-AMP product to the beads (coated with the immobilised trivalent cations) slows the rotation of the bound Fl-AMP and leads to an increase in the fluorescence polarisation ratio of parallel to perpendicular light. Inhibition of the PDE reduces/inhibits this signal increase. […]

T1 sequence (Q07343 1-564 isoform Q07343-2): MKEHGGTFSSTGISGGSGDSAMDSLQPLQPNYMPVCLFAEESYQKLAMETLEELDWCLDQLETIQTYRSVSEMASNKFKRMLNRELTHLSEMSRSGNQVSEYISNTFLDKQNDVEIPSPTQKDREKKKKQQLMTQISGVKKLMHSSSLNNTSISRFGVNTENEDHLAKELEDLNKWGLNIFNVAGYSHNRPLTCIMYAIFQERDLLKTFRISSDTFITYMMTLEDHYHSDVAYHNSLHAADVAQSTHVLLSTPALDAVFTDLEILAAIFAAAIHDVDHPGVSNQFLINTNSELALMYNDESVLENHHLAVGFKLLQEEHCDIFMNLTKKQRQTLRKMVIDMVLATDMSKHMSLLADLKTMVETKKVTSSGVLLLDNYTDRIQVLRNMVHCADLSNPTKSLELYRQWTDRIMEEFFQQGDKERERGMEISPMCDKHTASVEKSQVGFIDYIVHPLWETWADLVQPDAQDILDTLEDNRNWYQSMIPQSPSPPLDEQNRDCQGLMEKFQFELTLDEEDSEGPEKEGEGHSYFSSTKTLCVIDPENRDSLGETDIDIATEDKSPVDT

| Compound | IC50 [nM] |
| --- | --- |
| CCn1ncc2c(N[C@@H]3CCN(C(N)=O)C3)c(C(=O)NCc3ccc(C)cc3C)cnc21 [Example 71, 4-{[(3R)-1-(aminocarbonyl)-3-pyrrolidinyl]amino}-N-[(2,4-dimethylphenyl)methyl]-1-ethyl-1H-pyrazolo[3,4-b]pyridine-5-carboxamide] | 31.6 to 100 |
| CCn1ncc2c(N[C@H]3CC[C@H](C(N)=O)CC3)c(C(=O)NCc3ccc(C)c(C)c3)cnc21 [Example 9, 4-{[trans-4-(aminocarbonyl)cyclohexyl]amino}-N-[(3,4-dimethylphenyl)methyl]-1-ethyl-1H-pyrazolo[3,4-b]pyridine-5-carboxamide] | 158 to 200 |
| CCn1ncc2c(N[C@H]3CC[C@H](C(N)=O)CC3)c(C(=O)NCc3ccc(C)cc3C)cnc21 [Example 46, 4-{[trans-4-(aminocarbonyl)cyclohexyl]amino}-N-[(2,4-dimethylphenyl)methyl]-1-ethyl-1H-pyrazolo[3,4-b]pyridine-5-carboxamide] | 158 to 200 |
| CCn1ncc2c(N[C@H]3CC[C@@H](C(N)=O)CC3)c(C(=O)NCc3ccc(C)cc3C)cnc21 [Example 45, 4-{[cis-4-(aminocarbonyl)cyclohexyl]amino}-N-[(2,4-dimethylphenyl)methyl]-1-ethyl-1H-pyrazolo[3,4-b]pyridine-5-carboxamide] | 1.26 to 5.01 |
| CCn1ncc2c(N[C@H]3CCN(C(N)=O)C3)c(C(=O)NCc3ccc(C)c(C)c3)cnc21 [Example 70, 4-{[(3S)-1-(aminocarbonyl)-3-pyrrolidinyl]amino}-N-[(3,4-dimethylphenyl)methyl]-1-ethyl-1H-pyrazolo[3,4-b]pyridine-5-carboxamide] | ~10 |
| CCn1ncc2c(N[C@@H]3CCN(C(N)=O)C3)c(C(=O)NCc3ccc(C)c(C)c3)cnc21 [Example 72, 4-{[(3R)-1-(aminocarbonyl)-3-pyrrolidinyl]amino}-N-[(3,4-dimethylphenyl)methyl]-1-ethyl-1H-pyrazolo[3,4-b]pyridine-5-carboxamide] | 31.6 to 100 |
| CCn1ncc2c(N[C@H]3CC[C@@H](C(N)=O)CC3)c(C(=O)NCc3ccc(OC)cc3)cnc21 [Example 47, 4-{[cis-4-(aminocarbonyl)cyclohexyl]amino}-1-ethyl-N-{[4-(methyloxy)phenyl]methyl}-1H-pyrazolo[3,4-b]pyridine-5-carboxamide] | 1.26 to 5.01 |
| CCn1ncc2c(NC3CCC(C(N)=O)CC3)c(C(=O)NCc3ccc(C)c(C)c3)cnc21 (stereo not drawn) [Example 4, 4-{[4-(aminocarbonyl)cyclohexyl]amino}-N-[(3,4-dimethylphenyl)methyl]-1-ethyl-1H-pyrazolo[3,4-b]pyridine-5-carboxamide] | 1 to 3.16 |
| CCn1ncc2c(N[C@H]3CCN(C(N)=O)C3)c(C(=O)NCc3ccc(C)cc3C)cnc21 [Example 69, 4-{[(3S)-1-(aminocarbonyl)-3-pyrrolidinyl]amino}-N-[(2,4-dimethylphenyl)methyl]-1-ethyl-1H-pyrazolo[3,4-b]pyridine-5-carboxamide] | ~10 |
| CCn1ncc2c(NC3CCN(C(N)=O)CC3)c(C(=O)NCc3ccc(C)cc3C)cnc21 [Example 1, 4-{[1-(aminocarbonyl)-4-piperidinyl]amino}-N-[(2,4-dimethylphenyl)methyl]-1-ethyl-1H-pyrazolo[3,4-b]pyridine-5-carboxamide] | 0.631 to 0.794 |
| CCn1ncc2c(NC3CCC(C(N)=O)CC3)c(C(=O)NCc3ccc(C)cc3C)cnc21 (stereo not drawn) [Example 5, 4-{[4-(aminocarbonyl)cyclohexyl]amino}-N-[(2,4-dimethylphenyl)methyl]-1-ethyl-1H-pyrazolo[3,4-b]pyridine-5-carboxamide] | 1 to 3.16 |
| CCn1ncc2c(N[C@H]3CC[C@@H](C(N)=O)CC3)c(C(=O)NCc3ccc(C)c(C)c3)cnc21 [Example 8, 4-{[cis-4-(aminocarbonyl)cyclohexyl]amino}-N-[(3,4-dimethylphenyl)methyl]-1-ethyl-1H-pyrazolo[3,4-b]pyridine-5-carboxamide] | 1 to 3.16 |
| CCn1ncc2c(NC3CCN(C(N)=O)CC3)c(C(=O)NCc3ccc(OC)cc3)cnc21 [Example 3, 4-{[1-(aminocarbonyl)-4-piperidinyl]amino}-1-ethyl-N-{[4-(methyloxy)phenyl]methyl}-1H-pyrazolo[3,4-b]pyridine-5-carboxamide] | 1 to 3.16 |
